1 molecule from patent US20250152559A1, “METHODS FOR TREATING MYC-AMPLIFIED CANCER” (The Governing Council of the University of Toronto, priority 2023, published 2025) can be followed below.

For series [1], the system named is HD-MB03 PDOX. The series can be described thus: Orthotopic PDOX model, IVIS bioluminescence and survival. Type of series: in vivo, mice. The note with it: HD-MB03, regimens R1 and R2 vs vehicle. As to the method:
(§1) The treatment-naïve, patient-derived cell line, HD-MB03, was orthotopically engrafted into immunocompromised mice. Four days later, tumors were readily detectible via bioluminescence imaging. Thereafter mice were randomized into three cohorts, which were treated with either the vehicle or one of two BAY treatment regimens (R1 and R2; FIG. 5B).
PDOX were generated by engrafting 25,000 tumor cells (both SU_MB002 and HD-MB03 cell lines), suspended in 5 μL PBS, directly into the mouse cerebrum. Flank xenografts were generated by engrafting 2,000,000 tumor cells suspended in a 100 μL solution of PBS/Matrigel® (1:1 v/v). For preclinical studies, cells were engineered to express enhanced firefly luciferase. […] Flank tumors were isolated at matched time points and formalin fixed for 48 hours, paraffin embedded (FFPE) and sectioned for follow-up analysis. Tumor area was manually measured in H&E-stained sections of FFPE tissues using ImageJ.
For imaging via the in vivo imaging system (IVIS), mice were sedated with isoflurane gas and then administered luciferin substrate (150 mg/kg in PBS) via subcutaneous injection. After 10 minutes, bioluminescent signal (photons per second; p/s) was quantified using Living Image software.

Series [2] in a line: Mouse body weight / tolerability during treatment regimens. It counts as in vivo. As to the method:
as §1

In series [3] the test system is ERK1/2, c-Jun and 4EBP1 phosphorylation in SU_MB002 cells. Put plainly: Phosphokinome proteome profiler array and time-course Western blotting. Type of series: cell-based, human. The protocol:
To identify signaling changes accompanying DHODH inhibition in an unbiased fashion, changes in the phosphokinome of SU_MB002 cells were measured after treatment with BAY. […] Time-course Western blotting confirmed that ERK1/2 becomes phosphorylated within 24 h of BAY treatment, peaks at 48 h, and then decreases in expression at 72 h (FIG. 3I-J). […] These findings corroborated previous work that had implicated ERK1/2 silencing of mTORC1-mediated translation in activating apoptosis in cancer cells under severe metabolic stress^38. Indeed, both pharmacological inhibition or DHODH KO in G3MB-MYC induced both Go cell cycle arrest, determined via propidium iodide assessment of DNA content, (FIG. 3K, FIG. 8N) and apoptosis, determined via cleaved caspase 3 expression (FIG. 3I-J, FIG. 8M) and Annexin V staining (FIG. 3L, FIG. 8O). Such findings were also consistent with the enrichment of the hallmark apoptosis gene set in DHODH KO SU_MB002 cells (FIG. 3G). […] Pyrimidine starvation induces a metabolic stress response, which activates ERK1/2-mediated signaling, leading to suppression of mTORC1 activity, and initiation of apoptosis.
Protein lysates were isolated from approximately 500,000-1,000,000 cells. Pellets were rinsed with PBS and then lysed in RIPA buffer containing HALT™ protease inhibitor cocktail (ThermoFisher). Protein concentrations were quantified using the Bradford Assay (BioRad). Protein size was resolved via SDS-PAGE and then transferred to PVDF for immunoblotting. Rabbit polyclonal anti-DHODH (Cell Signaling Technologies; catalogue #80981), rabbit monoclonal anti-EGR1 (Cell Signaling Technologies; catalogue #4145), rabbit polyclonal anti-phospho-ERK1/2 Thr202/Tyr204 (Cell Signaling Technologies; catalogue #9101), rabbit monoclonal anti-phospho-4E-BP1 Thr37/46 (Cell Signaling Technologies; catalogue #2855) were used at a 1:1000 dilution. Mouse monoclonal anti-GAPDH (Abcam; catalogue #ab8245) was used at a 1:5000 dilution. For development, horse-radish peroxidase-conjugated secondary anti-mouse (BioRad; catalogue #1706516) and anti-rabbit antibodies (BioRad; catalogue #1706515) were used with BioRad Clarity ECL reagents. Quantification was performed by analyzing mean pixel density of each band and then normalizing to GAPDH loading control. The proteome profiler array was obtained from R&D systems (catalogue ARY003C) and performed according to manufacturing guidelines, using 400 μg cellular lysate for each sample.
Background: Immunoblotting shows a protein as a band on a membrane.

Series [4] deals with MED411-FHTC. Put plainly: PrestoBlue cell viability, 72-hour treatment, limiting dilution. Type of series: cell-based. The note with it: Homo sapiens, read-out: BAY2402234 IC50, G3MB-MYC. The protocol:
(§2) SU_MB002, NSC194, NSC197 and NSC201FT, MBT375 and MED411FHTC were maintained in Neurocult Complete (NCC) media (Stem Cell Technologies; catalogue #05751). D425 and D458 were maintained in Dulbecco's […] (DMEM) containing 10% fetal bovine serum (FBS). HD-MB03 were maintained in NCC containing 10% FBS. All cell lines were conditioned in NCC for a minimum of 48 hours before experimentation. SU_MB002 and HD-MB03 G3MB-MYC PDOX were obtained from collaborators as kind gifts and are frequently passaged in vivo. SU_MB002, a treatment-refractory group 3 MB acquired at autopsy was received from Dr. Yoon-Jae Cho. Dr. Till Milde provided HD-MB03, a treatment-naïve group 3 MBs. ICB1299 group 4 MB cells were obtained as a gift from Silvia Marino's laboratory^62. MBT375 was established in-house from a surgical specimen of group 4 MB, which was engrafted in the cerebellum of mice for serial propagation. Nanostring genotyping was used to confirm group 4 medulloblastoma identity. MED411FHTC PDOX were procured from Dr. Olson's brain tumor research lab. D425 and D458 were obtained from the ATCC. All cell lines were fingerprint verified by short tandem repeat (STR) profiling. NSC194, NSC197 and NSC201FT were derived in-house from donor fetal brain tissues^63.
(§3) For assessment of viability, cells were seeded into 96-well plates at a density of 1,000 cells per well. Viability was measured by adding PrestoBlue™ diluted 1:10 (ThermoFisher Scientific; Catalogue #A13261) followed by a 4-hour incubation. Relative fluorescence intensity was determined via background correction. To assess tumorsphere forming capacity, cells were seeded at a low density (200 cells per well) and incubated for 3-5 days. Tumorspheres were manually counted thereafter.

Series [5] has as its system D425. Described as above. Type of series: cell-based. Conditions: Homo sapiens, read-out: BAY2402234 IC50; D425, G3MB-MYC. The protocol: as §2, §3
Series [6] relates to D458. The series is described as above. Type of series: cell-based. Conditions: Homo sapiens, read-out: BAY2402234 IC50; D458, G3MB-MYC. As to the method:
as §2, §3

Series [7] relates to HD-MB03. Described as above. Type of series: cell-based. Conditions: Homo sapiens, read-out: BAY2402234 IC50; HD-MB03, G3MB-MYC. The protocol: as §2, §3
[8] abbreviates: SU_MB002, BAY-treated vs vehicle, 48 h.
Setting [9] is: SU_MB002, time-course Western blotting.

Turning to `CCn1c(CO)nn(-c2cc(O[C@@H](C)C(F)(F)F)c(C(=O)Nc3c(F)cccc3Cl)cc2F)c1=O` [BAY2402234], in series [1], the overall survival entry is “prolonged overall survival”. The “PDOX growth (IVIS bioluminescence)” value in series [1] (oral gavage) is recorded as “significantly attenuated”. For the same molecule, in series [2] (5 mg/kg), the “tolerability over the entire treatment period” value is on record as “well-tolerated”. For the same molecule, the body weight entry in series [2] (R2, after the 10 mg/kg doses) is recorded as “marginal, temporary weight loss”. The “phosphorylation of ERK1/2 (T202/Y204; T185/Y187)” value in series [3] (setting [8]) is on record as “Increased phosphorylation”. For the same molecule, the “phosphorylation of c-Jun (S63)” value in series [3] (setting [8]) is given as “Increased phosphorylation”. Further, the “time of peak ERK1/2 phosphorylation” value in series [3] (setting [9]) is given as 48 h. Further, the “time until ERK1/2 becomes phosphorylated” value in series [3] (setting [9]) is recorded as not above 24 h. The “phosphorylation of 4EBP1” value in series [3] (time-course BAY treatment) was “decreased in a time-dependent fashion”. Also, the IC50 (as a rule, the midpoint of a concentration-inhibition curve) was 0.626 nM in series [4], 0.494 nM in series [5], 0.26 nM in series [6] and 0.243 nM in series [7].
